Laboratory results published in ChEMBL document CHEMBL1201862, “PubChem BioAssay data set” (2004).
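Grown in 96-well plates, cells were treated for 48 hours with each compound at five concentrations. Insufficient inhibition: endpoint recorded as highest concentration tested. Abbreviation: GI50, concentration required for 50% inhibition of growth.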 Activity calls are given as the source filed them. Cut-off read from the data, not from the text of the source: active = GI50 up to about 1.1 µM and inactive = higher. *1 amine or outer side, *2 acyl side, *3 side chain or, on linkers, in order; H or OH if unused. Where a SMILES comes first, the peptide text is derived from it. [ ]: non-standard residue; d: D form. The star is where a group is joined. X31 = CC(=O)N(C)SCC(N[*:1])C(=O)[*:2]; Fmoc = O=C(OCC1c2ccccc2-c2ccccc21)*; For = O=C*

Columns and labels:
Assay in all cases: growth of human tumour cells (NCI), 48 h
BT-549 = tested on: BT-549
COLO 205 = tested on: COLO 205
HOP-62 = tested on: HOP-62
K562 = tested on: K562
M14 = tested on: M14
MDA-MB-435 = tested on: MDA-MB-435
MDA-N = tested on: MDA-N
NCI-H460 = tested on: NCI-H460
NCI-H522 = tested on: NCI-H522
OVCAR-3 = tested on: OVCAR-3
OVCAR-5 = tested on: OVCAR-5
RPMI-8226 = tested on: RPMI-8226
SK-MEL-2 = tested on: SK-MEL-2
SN12C = tested on: SN12C
SW-620 = tested on: SW-620
T47D = tested on: T47D
U-251 = tested on: U-251
A498 = tested on: A498
IGROV-1 = tested on: IGROV-1
SNB-75 = tested on: SNB-75

Measured: GI50

COc1cc(C(=O)Nc2nnc(S(N)(=O)=O)s2)cc(OC)c1OC
inactive: BT-549 > 100 µM | COLO 205 > 100 µM | HOP-62 > 100 µM | K562 > 100 µM | M14 > 100 µM | MDA-MB-435 > 100 µM | MDA-N > 100 µM | NCI-H460 > 100 µM | NCI-H522 > 100 µM | OVCAR-3 > 100 µM | OVCAR-5 > 100 µM | RPMI-8226 > 100 µM | SK-MEL-2 > 100 µM | SN12C > 100 µM | SW-620 > 100 µM | T47D > 100 µM | U-251 > 100 µM

COc1cc2c(OC)c3cc(C)oc(=O)c3c(O)c2c(O)c1-c1c(OC)cc2c(OC)c3cc(C)oc(=O)c3c(O)c2c1O
inactive: A498 24.2 µM | BT-549 24.5 µM | HOP-62 15.2 µM | IGROV-1 14 µM | K562 16.4 µM | M14 18.1 µM | MDA-MB-435 18.2 µM | NCI-H460 21.6 µM | NCI-H522 18.7 µM | OVCAR-3 16.6 µM | OVCAR-5 19.7 µM | RPMI-8226 17.3 µM | SK-MEL-2 17.5 µM | SN12C 20.7 µM | SNB-75 45.1 µM | SW-620 30 µM | T47D 36.4 µM | U-251 15.8 µM

O=C1C2=Cc3ccccc3OC2(O)Oc2cc3ccccc3cc21 (centres undefined)
inactive: A498 > 100 µM | BT-549 15.1 µM | COLO 205 > 100 µM | HOP-62 > 100 µM | IGROV-1 28.7 µM | K562 > 100 µM | M14 > 100 µM | MDA-MB-435 > 100 µM | MDA-N > 100 µM | NCI-H460 > 100 µM | OVCAR-3 57.8 µM | OVCAR-5 > 100 µM | RPMI-8226 > 100 µM | SK-MEL-2 > 100 µM | SN12C > 100 µM | SNB-75 25.9 µM | SW-620 > 100 µM | T47D > 100 µM | U-251 50.9 µM

CCOc1ccccc1/N=C\c1c2ccccc2cc2ccccc12
inactive: A498 27 µM | BT-549 28.2 µM | COLO 205 32.3 µM | HOP-62 26.1 µM | IGROV-1 22.8 µM | K562 17.3 µM | M14 20.3 µM | MDA-MB-435 22.7 µM | MDA-N 21.9 µM | NCI-H460 29.9 µM | OVCAR-3 24.7 µM | OVCAR-5 25.8 µM | RPMI-8226 15.5 µM | SK-MEL-2 22.1 µM | SN12C 22.4 µM | SNB-75 19.5 µM | SW-620 24.5 µM | T47D 18.9 µM | U-251 20.4 µM

CCC(C#N)NCc1ccc(CNC(C#N)CC)cc1 (centres undefined)
inactive: A498 > 100 µM | BT-549 > 100 µM | COLO 205 > 100 µM | IGROV-1 > 100 µM | K562 > 100 µM | M14 > 100 µM | MDA-MB-435 > 100 µM | MDA-N > 100 µM | NCI-H460 > 100 µM | NCI-H522 > 100 µM | OVCAR-3 > 100 µM | OVCAR-5 > 100 µM | SK-MEL-2 > 100 µM | SN12C > 100 µM | SW-620 > 100 µM | T47D > 100 µM | U-251 > 100 µM

Cc1ccc(C(=O)N/N=C(\N=N\c2ccccc2Cl)c2ccc(N(C)C)cc2)cc1
inactive: BT-549 29.3 µM | COLO 205 38.6 µM | IGROV-1 > 100 µM | K562 17.1 µM | M14 42.7 µM | MDA-MB-435 10.5 µM | MDA-N 11.5 µM | NCI-H460 37.3 µM | NCI-H522 27.5 µM | OVCAR-3 30.3 µM | OVCAR-5 68.4 µM | RPMI-8226 23.7 µM | SK-MEL-2 54.6 µM | SN12C > 100 µM | SW-620 > 100 µM | T47D 2.64 µM | U-251 62.1 µM

c1ccc2c(c1)SC1=Nc3sc4ccccc4[n+]3CN12
inactive: BT-549 22.8 µM | COLO 205 2.13 µM | HOP-62 21.9 µM | IGROV-1 11.8 µM | K562 6.12 µM | M14 22 µM | MDA-MB-435 19.7 µM | NCI-H460 15.3 µM | NCI-H522 2.7 µM | OVCAR-3 2.88 µM | OVCAR-5 15 µM | RPMI-8226 21.8 µM | SK-MEL-2 11.4 µM | SN12C 20.8 µM | SW-620 10.4 µM | T47D 18.5 µM | U-251 3.3 µM

N=C(N)NS(=O)(=O)c1ccc(NNc2c3ccccc3nc3ccccc23)cc1
inactive: BT-549 1.18 µM | COLO 205 12.6 µM | HOP-62 6.87 µM | IGROV-1 15.2 µM | K562 6.04 µM | M14 12.8 µM | MDA-MB-435 16.2 µM | MDA-N 13.2 µM | NCI-H460 2.7 µM | NCI-H522 3.86 µM | OVCAR-3 4.04 µM | OVCAR-5 17.6 µM | RPMI-8226 12.6 µM | SK-MEL-2 18.2 µM | SN12C 4.23 µM | SNB-75 16.5 µM | SW-620 9.31 µM | T47D 5.73 µM | U-251 5.97 µM

C/C(=N\O)c1cccc(Nc2c3ccccc3nc3occc23)c1
inactive: A498 16.7 µM | BT-549 3.29 µM | COLO 205 5.09 µM | HOP-62 3.13 µM | IGROV-1 2.77 µM | K562 3.58 µM | M14 8.15 µM | MDA-MB-435 2.24 µM | MDA-N 3.05 µM | NCI-H460 5.15 µM | NCI-H522 1.74 µM | OVCAR-3 4.73 µM | OVCAR-5 48 µM | RPMI-8226 3.07 µM | SK-MEL-2 4.18 µM | SN12C 11.8 µM | T47D 2.56 µM | U-251 13.6 µM

COc1cc2nc(Cl)nc(NS(=O)(=O)c3cc4ccccc4s3)c2cc1OC
inactive: A498 16.4 µM | BT-549 22.9 µM | COLO 205 38.1 µM | HOP-62 31.5 µM | IGROV-1 27 µM | K562 18.2 µM | M14 26.2 µM | MDA-MB-435 22.4 µM | NCI-H460 32.5 µM | NCI-H522 31.3 µM | OVCAR-3 19 µM | OVCAR-5 19.6 µM | RPMI-8226 18.4 µM | SK-MEL-2 24.5 µM | SN12C 29.6 µM | SNB-75 23.1 µM | SW-620 17.1 µM | T47D 19.7 µM | U-251 27.3 µM

CC(=O)N(C)SCC(NC(=O)C(Cc1ccccc1)NC(=O)OCC1c2ccccc2-c2ccccc21)C(=O)NC(Cc1ccccc1)C(=O)NC(Cc1cn(C=O)c2ccccc12)C(=O)NC(CCCCNC(=O)OCC1c2ccccc2-c2ccccc21)C(=O)NC(C(=O)NC(CSN(C)C(C)=O)C(=O)NC(C(N)=O)C(C)O)C(C)O (centres undefined) (Fmoc-F[X31]FW(For)K(Fmoc)T[X31]T-NH2; configuration not given here)
inactive: BT-549 > 100 µM | COLO 205 36.6 µM | HOP-62 > 100 µM | IGROV-1 66.4 µM | K562 > 100 µM | M14 31 µM | MDA-MB-435 94.4 µM | MDA-N 36.7 µM | NCI-H460 33.5 µM | NCI-H522 89.7 µM | OVCAR-3 > 100 µM | OVCAR-5 > 100 µM | RPMI-8226 > 100 µM | SK-MEL-2 40.6 µM | SN12C > 100 µM | SNB-75 33.1 µM | SW-620 > 100 µM | T47D > 100 µM | U-251 > 100 µM
